Patent US20230348401A1, “Inhibitors of Glucose-6-phosphate Dehydrogenase and Uses Thereof” (The Trustees of Princeton University, priority 2020, published 2023)

These compounds were tested against G6PD (Homo sapiens, UniProt P11413) (assay: G6PD enzymatic activity by diaphorase-coupled assay). Details: not given.
Sequence of G6PD (P11413 28-515): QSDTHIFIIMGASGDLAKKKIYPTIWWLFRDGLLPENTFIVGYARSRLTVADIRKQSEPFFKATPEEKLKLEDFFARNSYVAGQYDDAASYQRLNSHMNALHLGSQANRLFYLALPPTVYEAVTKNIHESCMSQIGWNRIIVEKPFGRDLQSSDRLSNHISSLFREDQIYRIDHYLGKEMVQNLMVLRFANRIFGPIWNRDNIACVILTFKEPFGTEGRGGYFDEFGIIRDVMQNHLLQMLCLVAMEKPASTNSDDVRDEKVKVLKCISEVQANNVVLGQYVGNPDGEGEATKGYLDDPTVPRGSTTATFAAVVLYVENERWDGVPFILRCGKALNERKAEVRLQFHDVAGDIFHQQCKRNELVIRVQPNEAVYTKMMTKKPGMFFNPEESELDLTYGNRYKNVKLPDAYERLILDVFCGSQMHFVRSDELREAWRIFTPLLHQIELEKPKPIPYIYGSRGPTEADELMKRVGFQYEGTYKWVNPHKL

| IC50 | SMILES |
| --- | --- |
| < 1 µM | CC(C)Oc1cc(C#N)cc(Nc2ncc3c(n2)CCCCC3=O)c1 [Compound 0061] |
| < 1 µM | N#Cc1cccc(Nc2ncc3c(n2)CCCC(Br)C3=O)c1 (centres unmarked) [KG-0334] |
| < 1 µM | N#Cc1cc(Nc2ncc3c(n2)CCCC(O)C3=O)cs1 (centres unmarked) [KG-0333-0] |
| 1 to 1000 µM | N#Cc1cccc(Nc2ncc3c(n2)CCCS3(=O)=O)c1 [KG-0249-0] |
| 1 to 1000 µM | N#Cc1cc(Nc2ncc3c(n2)CCCCC3=O)ccc1Cl [Compound 0018] |
| 1 to 1000 µM | N#Cc1cc(Nc2ncc3c(n2)CCCCC3=O)cc(Oc2ccccc2)c1 [Compound 0084] |
| 1 to 1000 µM | N#Cc1cncc(Nc2ncc3c(n2)CCCC3=O)c1 [KG-0198-0] |
| 1 to 1000 µM | N#Cc1cccc(Nc2ncc3c(n2)CCCC3O)c1 (centres unmarked) [KG-0261-10] |
| 1 to 1000 µM | N#Cc1cccc(Nc2ncc3c(n2)CCCC(O)C3=O)c1 (centres unmarked) [KG-0331] |
| 1 to 1000 µM | N#Cc1cc(Nc2ncc3c(n2)CCCNC3=O)cs1 [Compound 0135] |
| < 1 µM | N#Cc1cc(Nc2ncc3c(n2)CCCC(Br)C3=O)cs1 (centres unmarked) [KG-0336-0] |

More lines, now with the values behind:

| SMILES | IC50 |
| --- | --- |
| N#Cc1cc(Nc2ncc3c(n2)CCCCC3=O)cc(OCc2cccc(Cl)c2)c1 [Compound 0046] | < 1 µM |
| Cn1cc(Nc2ncc3c(n2)CCCCC3=O)cc1C#N [Compound 0057] | 1 to 1000 µM |
| Cc1cccc(Oc2ncc3c(n2)CCCC3=O)c1 [KG-0141-0] | > 1000 µM |
| N#Cc1cc(Nc2ncc3c(n2)CCCCC3=O)cc(OCc2cnoc2)c1 [Compound 0123] | < 1 µM |
| Cc1cccc(Nc2ccc3c(n2)CCCC3=O)c1 [KG-0052] | > 1000 µM |
| O=C1CCCc2nc(Nc3nccs3)ncc21 [KG-0214-0] | 1 to 1000 µM |
| N#Cc1cc(Nc2ncc3c(n2)CCCCC3=O)cc(OCC23C[C@H]4C[C@@H](C2)C[C@@H](C3)C4)c1 [Compound 0105] | > 1000 µM |
| CCCCCCCCCCCCCCOc1cc(C#N)cc(Nc2ncc3c(n2)CCCCC3=O)c1 [Compound 0092] | > 1000 µM |
| N#Cc1cc(Nc2ncc3c(n2)CCCCC3(F)F)cs1 [Compound 0031] | 1 to 1000 µM |
| N#Cc1cc(Nc2ncc3c(n2)CCCCC3=O)cc(OCC2CCOCC2)c1 [Compound 0124] | < 1 µM |
| N#Cc1scc(Nc2ncc3c(n2)CCCCC3=O)c1-n1cccc1 [Compound 0071] | < 1 µM |
| N#Cc1cc(Nc2ncc3c(n2)CCCCC3=O)cc(OCC2CCCC2)c1 [Compound 0099] | 1 to 1000 µM |
| N#Cc1cc(Nc2ncc3c(n2)CCCCC3=O)cc(OCc2ccc(Br)cc2)c1 [Compound 0073] | 1 to 1000 µM |
| N#Cc1cc(Nc2ncc3c(n2)CCCCC3=O)cc(OCCN)c1 [Compound 0128] | 1 to 1000 µM |
| N#Cc1cc(Nc2ncc3c(n2)CCCCC3C(C#N)C#N)cs1 (centres unmarked) [Compound 0136] | 1 to 1000 µM |
| N#Cc1cc(Nc2ncc3c(n2)CCCCC3=O)cc(OCc2ccc(F)cc2)c1 [Compound 0076] | < 1 µM |
| N#Cc1cc(Nc2ncc3c(n2)CCCC/C3=N/O)cs1 [Compound 0054] | > 1000 µM |

| SMILES | IC50 |
| --- | --- |
| O=C1CCCCc2nc(Nc3ccc([N+](=O)[O-])c(Cl)c3)ncc21 [Compound 0025] | 1 to 1000 µM |
| N#Cc1cc(Nc2ncc3c(n2)CCCCC3=O)cc(OC(=O)c2ccccc2)c1 [Compound 0085] | 1 to 1000 µM |
| N#Cc1cc(Nc2ncc3c(n2)CCCCC3=O)cc(OCc2ccncc2)c1 [Compound 0078] | < 1 µM |
| COc1ccccc1COc1cc(C#N)cc(Nc2ncc3c(n2)CCCCC3=O)c1 [Compound 0122] | < 1 µM |
| Cc1cccc(Nc2ccc3c(c2)CCCC3=O)c1 [KG-0054] | > 1000 µM |
| C#CCCCOc1cc(C#N)cc(Nc2ncc3c(n2)CCCCC3=O)c1 [Compound 0094] | < 1 µM |
| CCOCCOc1cc(C#N)cc(Nc2ncc3c(n2)CCCCC3=O)c1 [Compound 0090] | 1 to 1000 µM |
| N#Cc1cc(Nc2ncc3c(n2)CCCCC3=O)cc(OCc2c[nH]c3ccccc23)c1 [Compound 0081] | > 1000 µM |
| O=C1CCCCc2nc(Nc3cc(C(F)(F)F)cc(C(F)(F)F)c3)ncc21 [Compound 0014] | 1 to 1000 µM |
| N#Cc1cc(Nc2ncc3c(n2)CCCc2cnoc2-3)cs1 [Compound 0052] | 1 to 1000 µM |
| N#Cc1cc(Nc2ncc3c(n2)CCCCC3=O)cc(OCCc2ccccc2)c1 [Compound 0103] | < 1 µM |
| N#C/C=C1\CCCCc2nc(Nc3csc(C#N)c3)ncc21 [Compound 0055] | 1 to 1000 µM |
| N#Cc1cc(Nc2ncc3c(n2)CCCCC3=O)cc(OCC2CCCCC2)c1 [Compound 0072] | 1 to 1000 µM |
| N#Cc1cc(Nc2ncc3c(n2)CCCCC3=O)cc(OC2CCCCC2)c1 [Compound 0063] | < 1 µM |
| N#Cc1cc(Nc2ncc3c(n2)CCCCC3=O)cc(OC(c2ccccc2)c2ccccc2)c1 [Compound 0100] | 1 to 1000 µM |
| O=C1CCCCc2nc(Nc3ccc(-c4nnn[nH]4)cc3)ncc21 [Compound 0036] | < 1 µM |

Same assay, conditions: Normalized in vitro IC50, Table 1; diaphorase-coupled biochemical assay, normalization to an intraplate control

| IC50 | SMILES |
| --- | --- |
| < 1 µM | N#Cc1cccc(Nc2ncc3c(n2)CCC(O)C3=O)c1 (centres unmarked) [KG-0315-0A] |
| 1 to 1000 µM | C#Cc1cccc(Nc2ncc3c(n2)CCCC3=O)c1 [KG-0183-0] |
| < 1 µM | O=C1CCCc2nc(Nc3cccc(F)c3)ncc21 [KG-0061-0] |
| < 1 µM | CC1CCc2nc(Nc3cccc(C#N)c3)ncc2C1=O (centres unmarked) [KG-0205-0] |
| 1 to 1000 µM | O=C1CCCc2nc(Nc3cccc(C4CC4)c3)ncc21 [KG-0203-0] |
| 1 to 1000 µM | O=C1CCCc2nc(Nc3ccc4ncsc4c3)ncc21 [KG-0224-0] |
| 1 to 1000 µM | Cc1cccc(Nc2ncc3c(n2)CCCC3=O)c1 [KG-0051-0] |
| 1 to 1000 µM | O=C1CCCc2nc(Nc3cccc(C(F)(F)F)c3)ncc21 [KG-0063-0] |

The remaining lines, values behind:

| SMILES | IC50 |
| --- | --- |
| O=C1CCCc2nc(Nc3ccon3)ncc21 [KG-0215-0] | 1 to 1000 µM |
| Cc1ccccc1Nc1ncc2c(n1)CCCC2=O [KG-0056-0A] | 1 to 1000 µM |
| O=C1CCCc2nc(Nc3cc[nH]n3)ncc21 [KG-0216-0] | > 1000 µM |
| O=C1CCCc2nc(Nc3cccc(Oc4ccccc4)c3)ncc21 [KG-0251-0] | 1 to 1000 µM |
| O=C1CCCc2nc(Nc3cccc(OCc4ccccc4)c3)ncc21 [KG-0252-0] | 1 to 1000 µM |
| O=C1CCCc2nc(Nc3ccc4cc[nH]c4c3)ncc21 [KG-0166-0] | 1 to 1000 µM |
| O=C1CCCc2nc(Nc3nc4ccccc4s3)ncc21 [KG-0211-0] | > 1000 µM |
| COc1cc(Cl)cc(Nc2ncc3c(n2)CCCC3=O)c1 [KG-0256-0] | < 1 µM |
| O=C1CCCc2nc(Nc3nc4ccccc4[nH]3)ncc21 [KG-0209-0] | 1 to 1000 µM |

Same assay, conditions: Normalized in vitro IC50, Table 1A; diaphorase-coupled biochemical assay, normalization to an intraplate control

| IC50 | SMILES |
| --- | --- |
| 1 to 1000 µM | N#CCc1cccc(Nc2ncc3c(n2)CCCCC3=O)c1 [Compound 0024] |
| < 1 µM | COc1ccc(Nc2ncc3c(n2)CCCCC3=O)cc1C#N [Compound 0020] |
| 1 to 1000 µM | N#Cc1ccc(Nc2ncc3c(n2)CCCCC3=O)cc1 [Compound 0012] |
| 1 to 1000 µM | O=C1CCCCc2nc(Nc3ccccc3)ncc21 [Compound 0021] |

The next lines start with the compound.

| SMILES | IC50 |
| --- | --- |
| CC(=O)Nc1ccc(Nc2ncc3c(n2)CCCCC3=O)cc1 [Compound 0013] | > 1000 µM |
| COC(=O)c1ccc(Nc2ncc3c(n2)CCCCC3=O)cc1 [Compound 0022] | 1 to 1000 µM |
| COc1ccc(Nc2ncc3c(n2)CCCCC3=O)cc1 [Compound 0008] | 1 to 1000 µM |
| O=C1CCCCc2nc(Nc3ccc(Cl)cc3)ncc21 [Compound 0002] | 1 to 1000 µM |
| O=C1CCCCc2nc(Nc3ccccc3F)ncc21 [Compound 0015] | 1 to 1000 µM |
| O=C1CCCCc2nc(Nc3ccc(F)cc3)ncc21 [Compound 0001] | 1 to 1000 µM |
